Reference: PMC9132363 (Journal of Medicinal Chemistry, 2022)
Where a name gives a salt, the structure may show the parent alone. Read-outs that look alike come from different tables or passages of the source.

Tests used:
[1] = molecular target: ROCK-II (ROKa) (Rattus norvegicus, UniProt Q62868); assay: ROCK inhibition studies (33P-ATP, Long S6 substrate peptide); format: biochemical; details: for remaining activity at 10 µM: 0.5 h, supplementary CSV, read-out: ROCK2 activity @ 10microM; for IC50: Table 3, read-out: ROCK2 inhibition IC50; for ROCK2 inhibition potency compared with fasudil: in words
Chain of ROCK-II (ROKa) (Q62868 2-543 limits assumed): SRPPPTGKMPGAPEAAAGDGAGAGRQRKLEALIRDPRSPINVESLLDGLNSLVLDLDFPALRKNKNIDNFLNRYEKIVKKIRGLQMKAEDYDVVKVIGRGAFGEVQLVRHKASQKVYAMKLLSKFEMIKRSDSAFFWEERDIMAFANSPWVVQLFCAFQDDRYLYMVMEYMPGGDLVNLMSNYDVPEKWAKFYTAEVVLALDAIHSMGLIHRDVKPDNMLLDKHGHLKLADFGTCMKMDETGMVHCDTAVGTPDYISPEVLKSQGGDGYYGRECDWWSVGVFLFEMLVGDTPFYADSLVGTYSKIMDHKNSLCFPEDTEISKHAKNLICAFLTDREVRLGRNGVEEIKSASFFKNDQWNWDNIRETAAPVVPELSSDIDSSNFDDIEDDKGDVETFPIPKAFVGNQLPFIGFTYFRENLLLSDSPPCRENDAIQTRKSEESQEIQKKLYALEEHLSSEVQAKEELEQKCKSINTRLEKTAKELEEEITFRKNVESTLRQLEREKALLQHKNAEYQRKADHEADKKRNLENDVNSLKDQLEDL
Procedure: ROCK-II (ROKa) (5–20 mU diluted in 50 mM Tris pH 7.5, 0.1 mM EGTA, 0.1% 2-mercaptoethanol, and 1 mg/mL BSA) was assayed against the Long S6 substrate peptide ([…]) in a final volume of 25.5 μL containing 50 mM Tris pH 7.5, 0.1 mM EGTA, 30 μM Long S6 substrate peptide, 10 mM magnesium acetate, and 0.02 mM [33P-g-ATP] (50–1000 cpm/pmol) and incubated for 30 min at room temperature. Assays were stopped by addition of 5 μL of 0.5 M (3%) orthophosphoric acid and then harvested onto P81 Unifilter plates with a wash buffer of 50 mM orthophosphoric acid.

[2] = DPPH radical scavenging assay; format: physicochemical; details: for EC50: 80% MeOH, 30 min, 517 nm, read-out: Radical scavenging activity EC50 (DPPH method); for IC50: supplementary CSV
Procedure: The antioxidant activity was determined by the 2,2-diphenyl-1-picrylhydrazyl hydrate (DPPH) assay.[65]−[67] All the measurements were performed in an 80% MeOH solution, with the final reaction volume being 3 mL. A stock of DPPH solution in DMSO (10^–2 M) was prepared and stored at −20 °C, and the same procedure was performed with the antioxidant solution. Then, the DPPH stock solution was diluted to 2 mL with a final concentration of 150 μM (final volume of 3 mL and final concentration of 100 μM). The antioxidant stock was sequentially diluted to 1 mL at 3, 9, 30, 90, and 300 μM (final volume of 3 mL and final concentrations of 1, 3, 10, 30, and 100 μM). The mixture was incubated at room temperature for 30 min. Once this time had passed, the absorbance was measured in a spectrophotometer at 517 nm. Trolox, caffeic acid, and ferulic acid were used as a standard (1, 3, 10, 30, and 100 μM final concentrations). A blank using 80% MeOH solution instead of the corresponding antioxidant was used in each assay. Two independent measurements of each sample were performed. Data were processed using Origin software, and sigmoidal fitting according to the DoseResp function was performed to extrapolate the IC50 (μM) of each antioxidant.

[3] = MTT viability assay; format: cell-based, human; details: human, HEK293T cells, HEK293T, 16 h, read-out: Cell viability (MTT)
Procedure: (§1) HEK293T cells were plated in 24-well culture plates (75,000 cells/well) and incubated in a CO2 incubator. The next day, treatment was given according to the experimental requirement. Sixteen hours later, 50 μL of MTT solutions from the stock (5 mg/mL) was added, and cells were incubated in a CO2 incubator in the dark for 2 h. The medium was removed, and formazan crystals formed by the cells were dissolved using 500 μL of DMSO followed by transfer in 96-well plates. The absorbance was read at a 570 nm wavelength on a multiwell plate reader.[70]

[4] = tested on: HEK293T cells; assay: MTT viability assay; format: cell-based, human; details: 20 µM, Table S3
Procedure: as §1

[5] = tested on: NRF2; assay: 3×ARE-LUC luciferase reporter assay; format: cell-based, human; details: for fold induction at 20 µM / fold induction at 6 µM / fold induction at 60 µM: Homo sapiens, 16 h; for NRF2 induction, CD (concentration needed to double luciferase expression): 3×ARE-LUC; for activation of the NRF2 reporter: in words, 6, 20 and 60 μM
Procedure: Transient transfections of HEK293T cells were performed with the expression vectors for TK-Renilla (Promega, Madison, […]) and the expression vector ARE-LUC (Dr. J. Alam, Dept. of Molecular Genetics, Ochsner Clinic Foundation, New Orleans, LA). Cells were seeded on 24-well plates (75,000 cells per well), cultured for 16 h, and transfected using calcium phosphate. Eight hours after transfections, cells were treated with 3 different concentrations of the compounds (6, 20, and 60 μM). […] After 16 h, the cells were lysed and assayed with a dual-luciferase assay system (Promega) according to the manufacturer’s instructions. Relative light units were measured in a GloMax 96 microplate luminometer with dual injectors (Promega).

[6] = 20 microM, supplementary CSV, read-out: NRF2 induction @ 20 microM (fold change)
[7] = HEK-293T, HEK293T, read-out: Luciferase assay response
[8] = HEK-293T, 20 µM, HEK293T, read-out: Luciferase assay response

Compound | remaining activity at 10 µM [1] [%] | IC50 [1] [µM] | ROCK2 inhibition potency compared with fasudil [1] | EC50 [2] [µM] | IC50 [2] [µM] | viability at 16 h, 20 µM [3] [%] | viability at 16 h, 60 µM [3] [%] | MTT (%) [4] [%] | fold induction at 20 µM [5, 6] | fold induction at 6 µM [5, 7] | fold induction at 20 µM [5, 8] | fold induction at 60 µM [5, 7] | melting point [°C] | NRF2 induction, CD (concentration needed to double luciferase expression) ([5]; HEK293T) [µM] | activation of the NRF2 reporter [5]
O=C(/C=C/c1ccc(O)c(O)c1)N1CCN(S(=O)(=O)c2cccc3cnccc23)CC1 [Compound 1a, 3-(3,4-Dihydroxyphenyl)-1-(4-(isoquinolin-5-ylsulfonyl)piperazin-1-yl)prop-2-en-1-one] | 13.7 ± 1 | 0.79 | potency similar to the reference compound | 9.93 | 11.9 ± 4.9 | 90.9 ± 1.63 | 100.7 ± 0.999 | < 20 | 0.8 ± 0.02 | 0.7 ± 0.06 | 0.8 ± 0.02 | 1.2 ± 0.08 | 161 to 162 |  | 
O=C(/C=C/c1ccc(O)c(O)c1)N1CCCN(S(=O)(=O)c2cccc3cnccc23)CC1 [Compound 1b, 3-(3,4-Dihydroxyphenyl)-1-(4-(isoquinolin-5-ylsulfonyl)-1,4-diazepan-1-yl)prop-2-en-1-one] | 7.8 ± 1 | 2.13 |  | 10 | 9.9 ± 1.4 | 96.9 ± 1.13 | 84.7 ± 1.83 |  | 3.1 ± 0.04 |  | 3.1 ± 0.04 | 4.1 ± 0.06 |  | 12 | dose-dependent activation
O=C(CCc1ccc(O)c(O)c1)N1CCN(S(=O)(=O)c2cccc3cnccc23)CC1 [Compound 1c, 3-(3,4-Dihydroxyphenyl)-1-(4-(isoquinolin-5-ylsulfonyl)piperazin-1-yl)propan-1-one] | 32.6 ± 10.3 | 0.32 | potency similar to the reference compound | 10.1 | 11.9 ± 3 | 104 ± 1.2 | 104.8 ± 0.434 |  | 2.2 ± 0.09 | 1.7 ± 0.09 | 2.2 ± 0.09 | 5.8 ± 0.23 | 158 to 159 | 15 | dose-dependent activation
COc1cc(/C=C/C(=O)N2CCN(S(=O)(=O)c3cccc4cnccc34)CC2)ccc1O [Compound 1e, 3-(4-Hydroxy-3-methoxyphenyl)-1-(4-(isoquinolin-5-ylsulfonyl)piperazin-1-yl)prop-2-en-1-one] | 47 ± 15.1 | 2.33 |  | 6.42 |  | 60.5 ± 2.73 | 55.9 ± 1.08 |  | 1.1 ± 0.16 | 1.2 ± 0.11 | 1.1 ± 0.16 | 1.2 ± 0.14 | > 230 |  | 
COc1cc(/C=C/C(=O)N2CCCN(S(=O)(=O)c3cccc4cnccc34)CC2)ccc1O [Compound 1f, 3-(4-Hydroxy-3-methoxyphenyl)-1-(4-(isoquinolin-5-ylsulfonyl)-1,4-diazepan-1-yl)prop-2-en-1-one] | 30.3 ± 7.4 | 2.61 |  | 9.61 |  | 93.9 ± 2.27 | 77.9 ± 3.9 | < 20 | 0.8 ± 0.02 | 0.7 ± 0.06 | 0.8 ± 0.02 | 1.2 ± 0.08 |  |  | 
COc1cc(CCC(=O)N2CCN(S(=O)(=O)c3cccc4cnccc34)CC2)ccc1O [Compound 1g, 3-(4-Hydroxy-3-methoxyphenyl)-1-(4-(isoquinolin-5-ylsulfonyl)piperazin-1-yl)propan-1-one] | 53 ± 8.8 | > 10 |  | 10.3 |  | 93.7 ± 2.2 | 87.5 ± 2.32 |  | 0.8 ± 0.04 | 1 ± 0.01 | 0.8 ± 0.04 | 1.5 ± 0.22 | 156 to 157 |  | 
COc1cc(CCC(=O)N2CCCN(S(=O)(=O)c3cccc4cnccc34)CC2)ccc1O [Compound 1h, 3-(4-Hydroxy-3-methoxyphenyl)-1-(4-(isoquinolin-5-ylsulfonyl)-1,4-diazepan-1-yl)propan-1-one] | 27.4 ± 1.4 | 0.9 |  | 12 |  | 99.4 ± 1.78 | 88.2 ± 2.43 |  | 0.9 ± 0.02 | 1.2 ± 0.09 | 0.9 ± 0.02 | 1.2 ± 0.03 |  |  | 
COC(=O)/C=C/C(=O)OC [DMF, dimethyl fumarate, reference compound] |  |  |  |  |  | 90.4 ± 6.96 | 92.21 ± 0.462 |  | 4.9 ± 0.35 |  | 4.9 ± 0.35 |  |  |  | 
C[S+]([O-])CCCCN=C=S (centres unmarked) [SFN, sulforaphane, reference compound] |  |  |  |  |  |  |  |  |  | 4 ± 0.08 |  |  |  |  | 
Cc1c(C)c2c(c(C)c1O)CCC(C)(C(=O)O)O2 (centres unmarked) [Trolox, reference compound] |  |  |  |  | 12 ± 2.3 |  |  |  |  |  |  |  |  |  | 
O=C(O)/C=C/c1ccc(O)c(O)c1 [caffeic acid, reference compound] |  |  |  | 12.1 |  |  |  |  |  |  |  |  |  |  | 
O=S(=O)(c1cccc2cnccc12)N1CCCNCC1 [fasudil, 5-((1,4-Diazepan-1-yl)sulfonyl)isoquinoline, reference compound] |  |  |  |  |  | 92.1 ± 3.71 | 83.43 ± 0.715 |  | 1 ± 0.06 | 1.3 ± 0.21 | 1 ± 0.06 | 2.9 ± 0.49 |  |  | low activity
COc1cc(/C=C/C(=O)O)ccc1O [ferulic acid, reference compound] |  |  |  | 22.8 |  |  |  |  |  |  |  |  |  |  | 
